The record followed here is ChEMBL document CHEMBL5126620, “Mapping the N-Terminal Hexokinase-I Binding Site onto Voltage-Dependent Anion Channel-1 To Block Peripheral Nerve Demyelination” (J Med Chem, 2022).

Data set [1] deals with HEK293. Description: Inhibition of VDAC in mitochondria of HEK293 cells transfected with mitoGCaMP2 assessed as calcium efflux from mitochondria by measuring decrease in mitoGCaMP2 fluorescence at 6 mM by DAPI staining confocal imaging analysis. The settings on record: Homo sapiens, time 30.0 min.
Data set [2] relates to HEK293. As to the kind of experiment: Inhibition of VDAC in mitochondria of HEK293 cells transfected with mitoGCaMP2 assessed as calcium efflux from mitochondria by measuring decrease in mitoGCaMP2 fluorescence at 33 uM by DAPI staining confocal imaging analysis. The settings on record: Homo sapiens.
Data set [3] has as its system HEK293. Description: Inhibition of VDAC in mitochondria of HEK293 cells transfected with mitoGCaMP2 assessed as calcium efflux by measuring mitoGCaMP2 fluorescence in cytoplasm at 33 uM by DAPI staining confocal imaging analysis. Type of data set: subcellular. The settings on record: Homo sapiens.
For the next data set, the species on record is Homo sapiens. As to the kind of experiment: Inhibition of VDAC (unknown origin) mediated mitochondrial Ca2+ release at 100 uM.
Data set [4] in a line: Inhibition of VDAC mediated mitochondrial Ca2+ release in HEK293 cells transfected with mitoGCaMP2. It counts as cell-based. The settings on record: Homo sapiens.
The nature of data set [5]: Metabolic stability in rat serum assessed as parent compound remaining at 66.6 uM after 1 hr incubation by LC-MS analysis relative to control. Type of data set: ADME, cell-free. The settings on record: read-out: Stability.
Data set [6] is filed under the species Mus musculus. Description: Inhibition of demyelination in sciatic nerve explant C57BL6/J mouse model assessed as reduction in fiber damage level in serum free medium at 3 uM measured after 24 hrs by coherent anti Stokes raman scattering assay. It counts as functional.
The species entered for data set [7] is Mus musculus. As to the kind of experiment: Inhibition of demyelination in sciatic nerve explant C57BL6/J mouse model assessed as reduction in fiber damage level in serum containing medium at 3 uM measured after 24 hrs by coherent anti Stokes raman scattering assay. It counts as functional.
Data set [8] can be described thus: Metabolic stability in rat serum assessed as parent compound remaining at 66.6 uM after 24 hr incubation by LC-MS analysis relative to control. Type of data set: ADME, cell-free. The settings on record: read-out: Stability.

The source made the active and inactive calls. No cut-off for these calls is given here. Numbered stars: 1 amine (or outer) side, 2 acyl side, 3 side chain; on linkers, the order of the positions; unused ones are H or OH. Square brackets hold non-standard residues; d marks the D form. Peptide text beside a SMILES is read from it. * marks the point of attachment. X2 = CC(C)(C(=O)*)n1cc(-c2cccc(C(F)(F)F)c2)nn1; X1 = CC(=O)CCCC[C@H](N[*:1])C(=O)[*:2]; Aib = CC(C)(N)C(=O)O

In the case of `CC/C=C\C[C@H]1C(=O)CC[C@@H]1CC(=O)OC`, the inhibition entry in the data set on HEK293 [1], in the data set with HEK293 [2] and with HEK293 [3] was “Active” in each case. One may read the IC50 as the midpoint of a concentration-inhibition curve. High values mean weaker potency, low ones greater potency. As to `CC[C@H](C)[C@H](NC(=O)[C@@H](N)CCCCC(C)=O)C(=O)N[C@@H](C)C(=O)N[C@@H](C)C(=O)N[C@@H](CCC(N)=O)C(=O)N[C@@H](CC(C)C)C(=O)N[C@@H](CC(C)C)C(=O)N[C@@H](C)C(=O)N[C@@H](Cc1ccc(O)cc1)C(=O)N[C@@H](Cc1ccc(O)cc1)C(=O)N[C@@H](Cc1ccccc1)C(=O)N[C@H](C(=O)N[C@@H](CCC(=O)O)C(=O)N[C@@H](CC(C)C)C(=O)N[C@@H](CCCCN)C(=O)NCC(=O)N[C@@H](CCCNC(=N)N)C(=O)N[C@@H](CCCCN)C(=O)N[C@@H](CCCCN)C(=O)N[C@@H](CCCNC(=N)N)C(=O)N[C@@H](CCCNC(=N)N)C(=O)N[C@@H](CCC(N)=O)C(=O)N[C@@H](CCCNC(=N)N)C(=O)N[C@@H](CCCNC(=N)N)C(=O)N[C@@H](CCCNC(=N)N)C(=O)N1CCC[C@H]1C(=O)N1CCC[C@H]1C(=O)N[C@@H](CCC(N)=O)C(N)=O)[C@@H](C)O` (H-[X1]IAAQLLAYYFTELKGRKKRRQRRRPPQ-NH2), the inhibition result in the data set listed under Homo sapiens, in the data set on HEK293 [2] and with HEK293 [3] was “Active” in each case. For the same compound, in [4], half-maximal inhibition (IC50) was put at 15.6 µM. Take `CCCC[C@H](NC(=O)[C@H](CCC(N)=O)NC(=O)[C@@H]1CCCN1C(=O)[C@@H]1CCCN1C(=O)[C@H](CCCNC(=N)N)NC(=O)[C@H](CCCNC(=N)N)NC(=O)[C@H](CCCNC(=N)N)NC(=O)[C@H](CCC(N)=O)NC(=O)[C@H](CCCNC(=N)N)NC(=O)[C@H](CCCNC(=N)N)NC(=O)[C@H](CCCCN)NC(=O)[C@H](CCCCN)NC(=O)[C@H](CCCNC(=N)N)NC(=O)CNC(C)=O)C(=O)N[C@H](C(=O)N[C@@H](C)C(=O)N[C@@H](C)C(=O)N[C@@H](CCC(N)=O)C(=O)N[C@@H](CC(C)C)C(=O)N[C@@H](CC(C)C)C(=O)N[C@@H](C)C(=O)N[C@@H](Cc1ccc(O)cc1)C(=O)N[C@@H](Cc1ccc(O)cc1)C(=O)N[C@@H](Cc1ccccc1)C(=O)N[C@H](C(=O)N[C@@H](CCC(=O)O)C(=O)N[C@@H](CC(C)C)C(=O)N[C@@H](CCCCN)C(N)=O)[C@@H](C)O)[C@@H](C)CC`: the IC50 in data set [4] is 13.9 µM. In the case of Ac-AQLLAYYFTELK-NH2, the remaining at 1 h, 66.6 µM in [5] was determined as 8%. In the case of `CC(=O)N[C@@H](C)C(=O)NC(C)(C)C(=O)N[C@@H](C)C(=O)NC(C)(C)C(=O)N[C@@H](C)C(=O)N[C@@H](CCC(N)=O)C(=O)N[C@@H](CC(C)C)C(=O)N[C@@H](CC(C)C)C(=O)NC(C)(C)C(=O)N[C@@H](Cc1ccc(O)cc1)C(=O)N[C@@H](Cc1ccc(O)cc1)C(=O)N[C@@H](Cc1ccccc1)C(=O)N[C@H](C(=O)N[C@@H](CCC(=O)O)C(=O)N[C@@H](CC(C)C)C(=O)N[C@@H](CCCCN)C(=O)NCC(=O)N[C@@H](CCCNC(=N)N)C(=O)N[C@@H](CCCCN)C(=O)N[C@@H](CCCCN)C(=O)N[C@@H](CCCNC(=N)N)C(=O)N[C@@H](CCCNC(=N)N)C(=O)N[C@@H](CCC(N)=O)C(=O)N[C@@H](CCCNC(=N)N)C(=O)N[C@@H](CCCNC(=N)N)C(=O)N[C@@H](CCCNC(=N)N)C(=O)N1CCC[C@H]1C(=O)N1CCC[C@H]1C(=O)N[C@@H](CCC(N)=O)C(N)=O)[C@@H](C)O` (Ac-A[Aib]A[Aib]AQLL[Aib]YYFTELKGRKKRRQRRRPPQ-NH2), the inhibition result in the data set listed under Mus musculus [6] and in the data set filed under Mus musculus [7] was “Active” throughout.

Ac-AQWWAYYFTEWK-NH2 returned an IC50 in data set [4] of 3.6 µM.

Regarding `C[C@H](NC(=O)C(C)(C)n1cc(-c2cccc(C(F)(F)F)c2)nn1)C(=O)N[C@@H](CCC(N)=O)C(=O)N[C@@H](Cc1c[nH]c2ccccc12)C(=O)N[C@@H](Cc1c[nH]c2ccccc12)C(=O)NC(C)(C)C(=O)N[C@@H](Cc1ccc(O)cc1)C(=O)N[C@@H](Cc1ccc(O)cc1)C(=O)N[C@@H](Cc1ccccc1)C(=O)N[C@H](C(=O)N[C@@H](CCC(=O)O)C(=O)N[C@@H](Cc1c[nH]c2ccccc12)C(=O)N[C@@H](CCCCN)C(=O)NCC(=O)N[C@@H](CCCNC(=N)N)C(=O)N[C@@H](CCCCN)C(=O)N[C@@H](CCCCN)C(=O)N[C@@H](CCCNC(=N)N)C(=O)N[C@@H](CCCNC(=N)N)C(=O)N[C@@H](CCC(N)=O)C(=O)N[C@@H](CCCNC(=N)N)C(=O)N[C@@H](CCCNC(=N)N)C(=O)N[C@@H](CCCNC(=N)N)C(=O)N1CCC[C@H]1C(=O)N1CCC[C@H]1C(=O)N[C@@H](CCC(N)=O)C(N)=O)[C@@H](C)O` (X2-AQWW[Aib]YYFTEWKGRKKRRQRRRPPQ-NH2), the inhibition entry in the data set listed under Mus musculus [6] and in the data set filed under Mus musculus [7] was “Active” throughout. On to `CC(=O)N[C@@H](C)C(=O)N[C@@H](CCC(N)=O)C(=O)N[C@@H](CC(C)C)C(=O)N[C@@H](CC(C)C)C(=O)NC(C)(C)C(=O)N[C@@H](Cc1ccc(O)cc1)C(=O)N[C@@H](Cc1ccc(O)cc1)C(=O)N[C@@H](Cc1ccccc1)C(=O)N[C@H](C(=O)N[C@@H](CCC(=O)O)C(=O)N[C@@H](CC(C)C)C(=O)N[C@@H](CCCCN)C(N)=O)[C@@H](C)O` (Ac-AQLL[Aib]YYFTELK-NH2), for which the remaining at 24 h, 66.6 µM in data set [8] was 65%. Consider Ac-AQWWAYYFTEWKGRKKRRQRRRPPQ-NH2, for which, in the data set filed under Mus musculus [6], the inhibition result was “Active”.

With `CC(=O)N[C@@H](C)C(=O)NC(C)(C)C(=O)N[C@@H](C)C(=O)NC(C)(C)C(=O)N[C@@H](C)C(=O)N[C@@H](CCC(N)=O)C(=O)N[C@@H](CC(C)C)C(=O)N[C@@H](CC(C)C)C(=O)NC(C)(C)C(=O)N[C@@H](Cc1ccc(O)cc1)C(=O)N[C@@H](Cc1ccc(O)cc1)C(=O)N[C@@H](Cc1ccccc1)C(=O)N[C@H](C(=O)N[C@@H](CCC(=O)O)C(=O)N[C@@H](CC(C)C)C(=O)N[C@@H](CCCCN)C(N)=O)[C@@H](C)O` (Ac-A[Aib]A[Aib]AQLL[Aib]YYFTELK-NH2), the remaining at 24 h, 66.6 µM in data set [8] was determined as 75%.
